From patent publication US20120270884A1, “Methods of Treating Aneurysmal Dilatation, Blood Vessel Wall Weakness and Specifically Abdominal Aortic and Thoracic Aneurysm Using Matrix Metalloprotease-2 Inhibitors” (SYMPHONY EVOLUTION, INC., priority 2009, published 2012)

Columns and labels:
Type in all cases: biochemical
[1] = target: TACE (TNF-alpha converting enzyme, ADAM-17) (Homo sapiens, UniProt P78536); assay: In vitro metalloprotease inhibition, TACE
From the text: (§1) Blank cells indicate lack of data only.

[2] = target: T1, MMP-1 (Fibroblast collagenase) (Homo sapiens, UniProt P03956); assay: In vitro metalloprotease inhibition, MMP-1
T1 sequence (P03956 100-469): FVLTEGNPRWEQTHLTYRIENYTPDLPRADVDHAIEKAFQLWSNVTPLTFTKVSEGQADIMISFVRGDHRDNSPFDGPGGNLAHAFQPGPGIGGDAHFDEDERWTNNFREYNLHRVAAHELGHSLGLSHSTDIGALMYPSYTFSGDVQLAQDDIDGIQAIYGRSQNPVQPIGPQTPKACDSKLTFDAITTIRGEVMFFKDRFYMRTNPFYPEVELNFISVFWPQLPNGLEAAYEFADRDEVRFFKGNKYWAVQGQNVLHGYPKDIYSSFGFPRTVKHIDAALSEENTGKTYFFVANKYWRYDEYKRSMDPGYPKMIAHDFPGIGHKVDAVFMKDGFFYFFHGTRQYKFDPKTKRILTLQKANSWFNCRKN
From the text: as §1

[3] = target: T2, MMP-2 (72 kDa gelatinase, gelatinase A) (Homo sapiens, UniProt P08253); assay: In vitro metalloprotease inhibition, MMP-2
T2 sequence (P08253 110-660): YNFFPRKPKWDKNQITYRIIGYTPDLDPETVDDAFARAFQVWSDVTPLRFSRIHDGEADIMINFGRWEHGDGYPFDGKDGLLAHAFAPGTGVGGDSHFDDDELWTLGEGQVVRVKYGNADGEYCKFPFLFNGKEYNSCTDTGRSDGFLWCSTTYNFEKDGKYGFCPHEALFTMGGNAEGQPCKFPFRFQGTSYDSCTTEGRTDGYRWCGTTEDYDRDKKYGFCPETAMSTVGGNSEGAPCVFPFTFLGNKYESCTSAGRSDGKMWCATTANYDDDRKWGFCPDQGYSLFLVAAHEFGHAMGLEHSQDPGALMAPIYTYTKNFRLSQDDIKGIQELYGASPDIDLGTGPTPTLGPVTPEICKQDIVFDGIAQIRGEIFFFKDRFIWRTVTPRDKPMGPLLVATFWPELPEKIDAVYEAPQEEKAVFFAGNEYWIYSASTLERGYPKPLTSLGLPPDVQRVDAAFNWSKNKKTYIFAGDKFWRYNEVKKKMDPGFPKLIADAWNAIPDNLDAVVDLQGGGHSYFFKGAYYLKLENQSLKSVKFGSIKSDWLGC

MMP-3 (Stromelysin-1) = MMP-3 (Stromelysin-1) (Homo sapiens, UniProt P08254); assay: In vitro metalloprotease inhibition, MMP-3
Sequence of MMP-3 (Stromelysin-1) (P08254 100-477, species assumed): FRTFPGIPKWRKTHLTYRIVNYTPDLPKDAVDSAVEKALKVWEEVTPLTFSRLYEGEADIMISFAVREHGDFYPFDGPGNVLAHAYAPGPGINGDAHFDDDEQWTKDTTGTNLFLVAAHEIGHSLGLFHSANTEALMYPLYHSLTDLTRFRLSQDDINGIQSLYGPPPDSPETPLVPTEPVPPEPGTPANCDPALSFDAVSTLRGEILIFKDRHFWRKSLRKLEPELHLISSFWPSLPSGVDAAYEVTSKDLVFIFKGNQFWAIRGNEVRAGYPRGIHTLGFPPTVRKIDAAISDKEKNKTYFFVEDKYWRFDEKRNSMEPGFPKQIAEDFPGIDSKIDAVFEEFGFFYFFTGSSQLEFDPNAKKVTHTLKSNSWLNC
From the text: as §1

MMP-13 (collagenase-3) = MMP-13 (collagenase-3) (Homo sapiens, UniProt P45452); assay: In vitro metalloprotease inhibition, MMP-13

Sequence of TACE (TNF-alpha converting enzyme, ADAM-17) (P78536 215-824): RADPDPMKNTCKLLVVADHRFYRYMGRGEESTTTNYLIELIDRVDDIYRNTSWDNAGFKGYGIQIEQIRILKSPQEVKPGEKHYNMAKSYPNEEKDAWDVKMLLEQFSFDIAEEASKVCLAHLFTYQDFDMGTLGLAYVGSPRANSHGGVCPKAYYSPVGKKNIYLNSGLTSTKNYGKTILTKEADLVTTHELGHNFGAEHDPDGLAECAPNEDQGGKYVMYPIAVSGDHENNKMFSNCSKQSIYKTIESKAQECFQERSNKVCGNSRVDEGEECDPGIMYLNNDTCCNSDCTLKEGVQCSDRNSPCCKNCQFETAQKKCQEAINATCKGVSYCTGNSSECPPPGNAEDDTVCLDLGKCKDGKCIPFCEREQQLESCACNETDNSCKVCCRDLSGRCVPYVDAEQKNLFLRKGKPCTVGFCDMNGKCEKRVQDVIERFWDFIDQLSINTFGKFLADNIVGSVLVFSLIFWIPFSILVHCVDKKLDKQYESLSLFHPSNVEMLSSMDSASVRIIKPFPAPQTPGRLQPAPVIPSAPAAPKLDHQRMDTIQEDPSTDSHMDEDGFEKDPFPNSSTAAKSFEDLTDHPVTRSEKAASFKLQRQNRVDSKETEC

IC50 [1] | IC50 [2] | IC50 [3] | IC50 (MMP-3 (Stromelysin-1)) | IC50 (MMP-13 (collagenase-3)) | SMILES
50 to 1000 nM | 1000 to 20000 nM | < 50 nM | 50 to 1000 nM | < 50 nM | O=C(NO)[C@H]1CN(C(=O)C(=O)N2CCOCC2)CCN1S(=O)(=O)c1cc(F)c(Oc2ccc(Cl)cc2)c(F)c1 [Entry 31]
50 to 1000 nM | 1000 to 20000 nM | < 50 nM | 50 to 1000 nM | < 50 nM | O=C(NO)[C@H]1CN(S(=O)(=O)c2cccnc2O)CCN1S(=O)(=O)c1cc(F)c(Oc2ccc(Cl)cc2)c(F)c1 [Entry 45]
< 50 nM | 50 to 1000 nM | < 50 nM | < 50 nM | < 50 nM | CN(C)CCS(=O)(=O)N1CCN(S(=O)(=O)c2cc(F)c(Oc3ccc(Cl)cc3)c(F)c2)[C@@H](C(=O)NO)C1 [Entry 54]
50 to 1000 nM | 1000 to 20000 nM | < 50 nM | 50 to 1000 nM | < 50 nM | O=C(NO)[C@H]1CN(C(=O)c2cccnc2)CCN1S(=O)(=O)c1cc(F)c(Oc2ccc(Cl)cc2)c(F)c1 [Entry 59]
50 to 1000 nM | 1000 to 20000 nM | < 50 nM | < 50 nM | < 50 nM | O=C(NO)[C@H]1CN(S(=O)(=O)NC(=O)N2CCCCC2)CCN1S(=O)(=O)c1cc(F)c(Oc2ccc(Cl)cc2)c(F)c1 [Entry 37]
50 to 1000 nM | 1000 to 20000 nM | < 50 nM | < 50 nM | < 50 nM | O=C(NO)[C@H]1CN(S(=O)(=O)NC(=O)N2CCOCC2)CCN1S(=O)(=O)c1cc(F)c(Oc2ccc(Cl)cc2)c(F)c1 [Entry 38]
– | 1000 to 20000 nM | < 50 nM | 50 to 1000 nM | < 50 nM | O=C(NO)[C@H]1CN(C(=O)OCCN2CCCCC2)CCN1S(=O)(=O)c1cc(F)c(Oc2ccc(Cl)cc2)c(F)c1 [Entry 27]
– | > 20000 nM | < 50 nM | 50 to 1000 nM | < 50 nM | CNC(=O)CN1CCN(S(=O)(=O)c2cc(F)c(Oc3ccc(Cl)cc3)c(F)c2)[C@@H](C(=O)NO)C1 [Entry 19]
– | > 20000 nM | < 50 nM | 50 to 1000 nM | < 50 nM | CCCCCCC(=O)N1CCN(S(=O)(=O)c2cc(F)c(Oc3ccc(Cl)cc3)c(F)c2)[C@@H](C(=O)NO)C1 [Entry 43]
– | 50 to 1000 nM | < 50 nM | < 50 nM | < 50 nM | COCCOC(=O)N1CCN(S(=O)(=O)c2ccc(-c3cccc(F)c3)nc2)[C@@H](C(=O)NO)C1 [Entry 66]
– | > 20000 nM | < 50 nM | 50 to 1000 nM | < 50 nM | O=C(NO)[C@H]1CN(C(=O)Cc2cccnc2)CCN1S(=O)(=O)c1cc(F)c(Oc2ccc(Cl)cc2)c(F)c1 [Entry 47]
– | > 20000 nM | > 20000 nM | 50 to 1000 nM | < 50 nM | CN(C)c1ccc2ccc(S(=O)(=O)N3CCN(S(=O)(=O)c4cc(F)c(Oc5ccc(Cl)cc5)c(F)c4)[C@@H](C(=O)NO)C3)cc2c1 [Entry 50]
– | 1000 to 20000 nM | < 50 nM | 50 to 1000 nM | < 50 nM | CN(C)S(=O)(=O)N1CCN(S(=O)(=O)c2cc(F)c(Oc3ccc(Cl)cc3)c(F)c2)[C@@H](C(=O)NO)C1 [Entry 36]
– | 1000 to 20000 nM | < 50 nM | 50 to 1000 nM | < 50 nM | O=C(NO)[C@H]1CN(C(=O)C(=O)N2CCCCC2)CCN1S(=O)(=O)c1cc(F)c(Oc2ccc(Cl)cc2)c(F)c1 [Entry 35]
– | 50 to 1000 nM | < 50 nM | < 50 nM | < 50 nM | COCCOC(=O)N1CCN(S(=O)(=O)c2ccc(Oc3ccc(Cl)cc3)c(F)c2)[C@@H](C(=O)NO)C1 [Entry 4]
– | > 20000 nM | < 50 nM | > 20000 nM | < 50 nM | CN1CCN(S(=O)(=O)c2cc(F)c(Oc3ccc(F)cc3)c(F)c2)[C@@H](C(=O)NO)C1 [Entry 14]
– | 1000 to 20000 nM | 50 to 1000 nM | 1000 to 20000 nM | 50 to 1000 nM | O=C(NO)[C@H]1CN(C(=O)c2ccc(-c3ccccc3)cc2)CCN1S(=O)(=O)c1cc(F)c(Oc2ccc(Cl)cc2)c(F)c1 [Entry 51]
– | 50 to 1000 nM | < 50 nM | 50 to 1000 nM | < 50 nM | COCCOC(=O)N1CCN(S(=O)(=O)c2ccc(Oc3ccc(C#N)cc3)c(F)c2)[C@@H](C(=O)NO)C1 [Entry 5]
– | > 20000 nM | < 50 nM | 50 to 1000 nM | < 50 nM | O=C(NO)[C@H]1CN(S(=O)(=O)c2cccc3cnccc23)CCN1S(=O)(=O)c1cc(F)c(Oc2ccc(Cl)cc2)c(F)c1 [Entry 48]
– | > 20000 nM | < 50 nM | 50 to 1000 nM | < 50 nM | O=C(NO)[C@H]1CN(C(=O)CN2CCOCC2)CCN1S(=O)(=O)c1cc(F)c(Oc2ccc(Cl)cc2)c(F)c1 [Entry 25]
< 50 nM | 1000 to 20000 nM | < 50 nM | 50 to 1000 nM | < 50 nM | O=C(NO)[C@H]1CN(S(=O)(=O)Cc2ccncc2)CCN1S(=O)(=O)c1cc(F)c(Oc2ccc(Cl)cc2)c(F)c1 [Entry 34]
– | 1000 to 20000 nM | < 50 nM | 50 to 1000 nM | < 50 nM | O=C(CCl)NC(=O)N1CCN(S(=O)(=O)c2cc(F)c(Oc3ccc(Cl)cc3)c(F)c2)[C@@H](C(=O)NO)C1 [Entry 33]
– | 50 to 1000 nM | < 50 nM | < 50 nM | < 50 nM | O=C(NO)[C@H]1CN(C(=O)N2CCOCC2)CCN1S(=O)(=O)c1ccc(Oc2ccc(F)cc2)c(F)c1 [Entry 8]
– | > 20000 nM | 1000 to 20000 nM | > 20000 nM | 1000 to 20000 nM | O=C(NO)[C@H]1CN(S(=O)(=O)Cc2cc(Cl)cc(Cl)c2)CCN1S(=O)(=O)c1cc(F)c(Oc2ccc(Cl)cc2)c(F)c1 [Entry 61]
– | > 20000 nM | < 50 nM | 1000 to 20000 nM | 50 to 1000 nM | CCCC(CCC)C(=O)N1CCN(S(=O)(=O)c2cc(F)c(Oc3ccc(Cl)cc3)c(F)c2)[C@@H](C(=O)NO)C1 [Entry 44]
– | 1000 to 20000 nM | < 50 nM | 1000 to 20000 nM | < 50 nM | O=C(NO)[C@H]1CN(C(=O)Cc2ccncc2)CCN1S(=O)(=O)c1cc(F)c(Oc2ccc(Cl)cc2)c(F)c1 [Entry 52]
